Measured values from ChEMBL document CHEMBL1144195, “Synthesis and antitumor activity of C-9 epimers of the tetrahydrofuran containing acetogenin 4-deoxyannoreticuin” (2008).
Converted amounts (≈) assume the structure as drawn.

Experiments:
Jurkat = assay: Cytotoxicity against human Jurkat cells after 72 hrs by MTS method; type: functional
PC-3 = assay: Cytotoxicity against human PC-3 cells after 72 hrs by MTS method; type: functional; details: PC-3, 72 h

SMILES | GI50 (Jurkat) [µg/mL] | GI50 (PC-3) [µg/mL]
CCCCCCCCCCCC[C@@H](O)[C@H]1CC[C@H]([C@H](O)CCCCC[C@H](O)CCCCCCC2=C[C@H](C)OC2=O)O1 | 5 (≈ 8.61 µM) | 15 (≈ 25.8 µM)
CCCCCCCCCCCC[C@@H](O)[C@H]1CC[C@H]([C@H](O)CCCCC[C@@H](O)CCCCCCC2=C[C@H](C)OC2=O)O1 | 5 (≈ 8.61 µM) | 10 (≈ 17.2 µM)
